Earlier results on four compounds are cited in patent publication US5556638A, “Flurbiprofen-containing immediate-effect medicament and its use” (Alfatec Pharma GMBH, priority 1991, dated 1996).

For data set [1] the following is noted: racemate.
The conditions of data set [2]: prior art.
For the next data set, the system named is pain. Particulars: optical antipodes of flurbiprofen.
Another data set deals with inflammation. Particulars: optical antipodes of flurbiprofen.

With `CC(C(=O)O)c1ccc(-c2ccccc2)c(F)c1` (racemic) [Racemic flurbiprofen], the undesirable side effects result in data set [1] is listed as “significant undesirable side effects”. For the same compound, the “time until therapeutic concentrations are achieved” value in data set [2] (racemic flurbiprofen) was 4 to 5 h. For the same compound, in data set [2] (racemic flurbiprofen, blood level maximum), the tmax was 1 to 2 h.
Regarding `C[C@@H](C(=O)O)c1ccc(-c2ccccc2)c(F)c1` [R-flurbiprofen], in the data set with pain, the analgesic action result was “pronounced analgesic action”.
Take `C[C@H](C(=O)O)c1ccc(-c2ccccc2)c(F)c1` [S-flurbiprofen]: the anti-inflammatory action result in the data set with inflammation is “marked anti-inflammatory action”.
As for `CC(C(=O)O)c1ccc(-c2ccccc2)c(F)c1` (stereo not drawn) [flurbiprofen, 2-(2-fluoro-4-biphenylyl)propionic acid], the site of absorption result in data set [2] (oral) was “only absorbed in the upper small intestine”.
